Read-outs that look alike come from different tables or passages of the source.
Key:
[1] = system: Human Monocytes (THP-1) cell line; details: 24 h
Method: The in vitro cytotoxicity was performed on Human Monocytes (THP-1) cell line to find the non-toxic concentrations of the test substances by WST-1 assay and evaluate their autophagic activity in Human Monocytes by CYTO-ID® Autophagy Detection Kit
About 10 mg of the test substances, N-(3-Aminopropyl)-1,4-butanediamine and N-α-Acetyl-N-β-alanyl-L-histidine were dissolved separately with 1 mL RPMI-1640 supplemented with 2% inactivated FBS to obtain a stock solution of 10 mg/mL concentration. Diluted the stock to desired concentrations for carrying out further studies.
THP-1 (Human Monocyte cells) was procured from NCCS, India. Stock cells were cultured in RPMI-1640 supplemented with 10% inactivated Fetal Bovine Serum (FBS), penicillin (100 IU/mL), streptomycin (100 μg/mL) and amphotericin B (5 μg/mL) in an humidified atmosphere of 5% CO2 at 37° C. until confluent. The stock cultures were grown in 25 cm^2 culture flasks and all experiments were carried out in 96 microtitre plates and 6 well plate (Tarsons India Pvt. Ltd., Kolkata, India).
The cell count was adjusted to 100,000 cells/mL using RPMI-1640 containing 10% FBS. To each well of the 96 well micro titre plate, 0.1 mL of the diluted cell suspension was added. After 24 h, 0.1 mL of different test concentrations were added in the micro titre plate. The untreated cells were maintained as cell control for comparison. The plate was then incubated at 37° C. for 24 h in 5% CO2 atmosphere, and microscopic examination was carried out and observations were noted. After 24 h, 20 μL of WST-1 added to each well and incubated for 3 h at 37° C. in 5% CO2 atmosphere. The plates were gently shaken and the absorbance was measured using a micro plate reader at a wavelength of 490 nm.

[2] = system: Human Monocytes (THP-1) cell line; assay: Estimation of autophagy using flow cytometer by CYTO-ID Autophagy Detection Kit; assay type: cell-based; details: THP-1 cells in autophagy, 24 h treatment, amounts as in the group description
Method: [table] […] To each well of the 6 well plates, 2 mL of the diluted cell suspension was added. After 24 h, 1 mL of different test concentrations and combinations of test substances were added. […] THP-1 cells were incubated with Rapamycin, and test substances in a 6-well plate. Followed by incubation, cells from different groups were harvested and measured using CYTO-ID autophagy detection kit by flow cytometer. All the reagents, standard solutions and samples will be thawed to room temperature before use. The assay was carried out as per manufacturer's instructions.

Structure (SMILES): NCCCCNCCCN [N-(3-Aminopropyl)-1,4-butanediamine]
- Percentage cytotoxicity after treatment ([1]; 0.01 mg/mL): 0.74 ± 0.25%
- Percentage cytotoxicity after treatment ([1]; 0.03 mg/mL): 0.68 ± 2.30%
- Percentage cytotoxicity after treatment ([1]; 0.06 mg/mL): 0.94 ± 0.18%
- Percentage cytotoxicity after treatment ([1]; 0.07 mg/mL): 0.86 ± 2.08%
- Percentage cytotoxicity after treatment ([1]; 0.12 mg/mL): 1.20 ± 0.87%
- Percentage cytotoxicity after treatment ([1]; 0.25 mg/mL): 4.10 ± 1.63%
- Percentage cytotoxicity after treatment ([1]; 0.5 mg/mL): 11.79 ± 3.36%
- Percentage cytotoxicity after treatment ([1]; 1 mg/mL): 22.88 ± 2.80%
- Percentage cytotoxicity after treatment ([1]; 5 mg/mL): 39.37 ± 1.37%
- Percentage cells expressed CYTO-ID [2]: 7.24%

Structure (SMILES): CC(=O)NCCC(=O)N[C@@H](Cc1c[nH]cn1)C(=O)O [N-α-Acetyl-N-β-alanyl-L-histidine]
- Percentage cells expressed CYTO-ID [2]: 4.03%

Structure (SMILES): CO[C@H]1C[C@@H]2CC[C@@H](C)[C@@](O)(O2)C(=O)C(=O)N2CCCC[C@H]2C(=O)O[C@H]([C@H](C)C[C@@H]2CC[C@@H](O)[C@H](OC)C2)CC(=O)[C@H](C)/C=C(\C)[C@@H](O)[C@@H](OC)C(=O)[C@H](C)C[C@H](C)/C=C/C=C/C=C/1C [Rapamycin, reference compound]
- Percentage cells expressed CYTO-ID [2]: 18.85%
